≈ marks a conversion by molar mass, not a printed value.
Tests used:
Assay type in all cases: cell-based
[1] = tested on: fatty acid synthesis pathway activity in MCF-7 human breast cancer cells; experiment: [14C]acetate incorporation into total lipids; settings: MCF-7 cells, [14C]acetate into lipids; for IC50: Homo sapiens, MCF7
Experimental: This assay measures the incorporation of [^14C]acetate into total lipids and is a measure of fatty acid synthesis pathway activity in vitro. It is utilized to measure inhibition of fatty acid synthesis in vitro.
MCF-7 human breast cancer cells cultured as above, are plated at 5×10^4 cells per well in 24-well plates. Following overnight incubation, the compounds to be tested, solubilized in DMSO, are added at 5, 10, and 20 μg/ml in triplicate, with lower concentrations tested if necessary. DMSO is added to triplicate wells for a vehicle control. C75 is run at 5 and 10 μg/ml in triplicate as positive controls. After 4 hours of incubation, 0.25 μCi of [^14C]acetate (10 μl volume) is added to each well.
After 2 hours of additional incubation, medium is aspirated from the wells and 800 μl of chloroform:methanol (2:1) and 700 μl of 4 mM MgCl2 is added to each well. Contents of each well are transferred to 1.5 Eppendorf tubes, and spun at full-speed for 2 minutes in a high-speed Eppendorf Microcentrifuge 5415D. After removal of the aqueous (upper) layer, an additional 700 μl of chloroform:methanol (2:1) and 500 μl of 4 mM MgCl2 are added to each tube and then centrifuged for 1 minutes as above. The aqueous layer is removed with a Pasteur pipette and discarded. An additional 400 μl of chloroform:methanol (2:1) and 200 μl of 4 mM MgCl2 are added to each tube, then centrifuged and aqueous layer is discarded. The lower (organic) phase is transferred into a scintillation vial and dried at 40° C. under N2 gas. Once dried, 3 ml of scintillant (APB #NBC5104) is added and vials are counted for ^14C. The Beckman Scintillation counter calculates the average cpm values for triplicates.
The IC50 for the compounds is defined as the concentration of drug leading to a 50% reduction in [^14C]acetate incorporation into lipids compared to controls. This is determined by plotting the average cpm for each inhibitor concentration tested, performing linear regression and computing the best-fit line, r^2 values, and 95% confidence intervals. The average cpm values are computed by the Beckman scintillation counter (Model LS6500) for each compound concentration. Computation of linear regression, best-fit line, r^2, and 95% confidence intervals are calculated using Prism Version 3.0 (Graph Pad Software).

[2] = tested on: MCF-7 human breast cancer cells; experiment: Crystal violet cell growth assay; settings: MCF7, MCF-7 cells, 72 hours, read-out: Cr. Violet (IC50)
Experimental: The crystal violet assay measures cell growth but not cytotoxicity. This assay employs crystal violet staining of fixed cells in 96-well plates with subsequent solubilization and measurement of OD490 on a spectrophotometer. The OD490 corresponds to cell growth per unit time measured. Cells are treated with the compounds of interest or vehicle controls and IC50 for each compound is computed.
To measure the cytotoxicity of specific compounds against cancer cells, 5×10^4 MCF-7 human breast cancer cells, obtained from the American Type Culture Collection are plated per well in 24 well plates in DMEM medium with 10% fetal bovine serum, penicillin, and streptomycin. Following overnight culture at 37° C. and 5% CO2, the compounds to be tested, dissolved in DMSO, are added to the wells in 1 μl volume at the following concentrations: 50, 40, 30, 20, and 10 μg/ml in triplicate. Additional concentrations are tested if required. 1 μl of DMSO is added to triplicate wells are the vehicle control. C75 is run at 10, and 5 μg/ml in triplicate as positive controls.
After 72 hours of incubation, cells are stained with 0.5 ml of Crystal Violet stain (0.5% in 25% methanol) in each well. After 10 minutes, wells are rinsed, air dried, and then solubilized with 0.5 ml 10% sodium dodecylsulfate with shaking for 2 hours. Following transfer of 100 μl from each well to a 96-well plate, plates are read at OD490 on a Molecular Devices SpectraMax Plus Spectrophotometer Average OD490 values are computed using SOFTmax Pro Software (Molecular Devices) and IC50 values are determined by linear regression analysis using Prism version 3.02 (Graph Pad Software, San Diego).

OV = experiment: XTT cytotoxicity assay (OV); settings: (OV) cells
Experimental: The XTT assay is a non-radioactive alternative for the [^51Cr] release cytotoxicity assay. XTT is a tetrazolium salt that is reduced to a formazan dye only by metabolically active, viable cells. The reduction of XTT is measured spectrophotometrically as OD490-OD650. After 72 hours of incubation, cells are incubated for 4 hours with the XTT reagent as per manufacturer's instructions (Cell Proliferation Kit 11 (XTT) Roche). Plates are read at OD490 and OD650 on a Molecular Devices SpectraMax Plus Spectrophotometer. Three wells containing the XTT reagent without cells serve as the plate blank. XTT data are reported as OD490-OD650. Averages and standard error of the mean are computed using SOFTmax Pro software (Molecular Dynamics). The IC50 for the compounds is defined as the concentration of drug leading to a 50% reduction in OD490-OD650 compared to controls. The OD490-OD650 are computed by the SOFTmax PRO software (Molecular Devices) for each compound concentration. IC50 is calculated by linear regression, plotting the FAS activity as percent of control versus drug concentrations. Linear regression, best-fit line, r^2, and 95% confidence intervals are determined using Prism Version 3.0 (Graph Pad Software).

For COC(=O)c1sc(C(=O)O)cc1O, which IC50 [1] is on record?
The IC50 was 55.2 µg/mL (≈ 273 µM).

What about the IC50 [2] of the same molecule?
The IC50 was over 80 µg/mL.

What about the IC50 (OV) of the same molecule?
Its IC50 is over 80 µg/mL.

With CCCCCCCCNC(=O)c1cc(O)c(C(=O)OC)s1 as the molecule, how does the IC50 [1] read?
The IC50 was 20.5 µg/mL (≈ 65.4 µM).

What about the IC50 [2] of the same molecule?
The IC50 was 38.8 µg/mL (≈ 124 µM).

What about the IC50 (OV) of the same molecule?
Its IC50 is 37.1 µg/mL (≈ 118 µM).

C=CCNC(=O)c1cc(O)c(C(=O)OC)s1 was tested. Which “14C (IC50)” value [1] did it give?
Its value is “Neg”.

What about the IC50 [2] of the same molecule?
The IC50 was over 80 µg/mL.

And the IC50 (OV)?
The IC50 was over 80 µg/mL.

For CCCCCCCCNNC(=O)c1cc(O)c(C(=O)OC)s1, which IC50 [1] is on record?
The IC50 was 41.2 µg/mL (≈ 125 µM).

And the IC50 [2]?
Its IC50 is 31.7 µg/mL (≈ 96.5 µM).

What about the IC50 (OV) of the same molecule?
The IC50 was 77.1 µg/mL (≈ 235 µM).

What does the source list for COC(=O)c1sc(C(=O)NNc2ccc(Cl)cc2)cc1O?
IC50 [1]: 25.2 µg/mL (≈ 77.1 µM); IC50 [2]: 18.1 ± 4.4 µg/mL (≈ 55.4 µM); IC50 (OV): 50 ± 5 µg/mL (≈ 153 µM)

Which results are given for CCCCCCCCNC(=O)c1cc(O)cs1?
IC50 [1]: 17.6 ± 1.9 µg/mL (≈ 68.9 µM); IC50 [2]: 8.5 ± 2.1 µg/mL (≈ 33.3 µM); IC50 (OV): 9.5 µg/mL (≈ 37.2 µM)

— patent publication US20100029752A1, “NOVEL COMPOUNDS, PHARMACEUTICAL COMPOSITIONS CONTAINING SAME, AND METHODS OF USE FOR SAME” (priority 2005, published 2010)
